According to US8802710B2, “Metronidazole esters for treating rosacea” (Galderma Research & Development, priority 2010, dated 2014):
Blank lines part the entries; values can stand above or below the compound they belong to.

How the values were obtained:
[1] = Stability on keratinocyte cultures; format: in vitro ADME, human; conditions: 2 μM, human neonatal keratinocyte culture, kinetics over 24 hours, LC/MS/MS; read-out: half-life time (t1/2) (converted)
Procedure: (§1) The stability on keratinocyte cultures is evaluated using human neonatal keratinocytes (Cell'N Tech) cultured in a 75 cm^2 flask and detached at 90-100% of confluence with vegetable trypsin (trypLE GIBCO). The compound of formula (I) was tested at 2 μM in the medium CNT-057 (Cell'N Tech) supplemented with 0.1% pluronic acid in 24-well plates. The final DMSO concentration is 0.1%. Degradation kinetics are performed with a Tecan EVO robot over 24 hours. The samples taken are then assayed by LC/MS/MS (Micromass) in comparison with a calibration range of the test product, prepared under the same conditions as the samples (⅓ culture medium and ⅔ methanol). The chromatographic conditions are optimized for each product. An assay of the appearance of metronidazole is also performed using these same samples.

[2] = test system: human neonatal keratinocytes; assay: Stability on keratinocyte cultures; format: in vitro ADME; conditions: human keratinocyte cultures
Procedure: as §1

[3] = test system: oedema induced by arachidonic acid (AA) on mouse ear; assay: Model of acute inflammation on mouse ear: arachidonic acid-induced oedema; format: in vivo; conditions: for IC50 (concentration at which 50% inhibition of the oedema induced by AA alone is observed): topical on mouse ear, oedema measured 1 hour after application, % weight per volume of solution
Procedure: The anti-inflammatory activities of the compound of formula (I) in racemic form, of the S enantiomer of the compound of formula (I), of metronidazole and of flurbiprofen were measured in an in vivo test performed on a mouse model. This model consists in inducing inflammation of the mouse ear with a single application of arachidonic acid (AA). Female Balb/c ByJlco mice are used. The oedema is induced by applying to the mouse's ear 20 μL of AA dissolved to 4% in a 1/1 THF/methanol mixture. The anti-inflammatory activities of the S enantiomer of the compound of formula (I), of the compound of formula (I) in racemic form, of metronidazole and of flurbiprofen were evaluated after topical application onto the inner face of the mouse's ear of 20 μL of a solution of the compound in a 1/1 THF/methanol mixture containing 4% AA.
Solutions containing 0.01%; 0.03%; 0.1%; 0.3%; 1% and 2% of the test compound are thus prepared. The percentages correspond to the weight of the test compound per volume of solution. The oedema is evaluated, 1 hour after application, by measuring the thickness of the ear using an Oditest® micrometer. The oedema induced by AA alone is evaluated, 1 hour after application, by measuring the thickness of the ear using an Oditest® micrometer. It is evaluated relative to a group comprising only the vehicle (1/1 THF/methanol).
The inhibition of the oedema is expressed as a percentage of reduction, by the test molecule and at the test concentration, of the oedema induced by AA alone.
The IC50 corresponds to the concentration (or dose) at which 50% inhibition of the oedema induced by AA alone is observed.

[4] = test system: oedema induced by TPA (phorbol 12-myristate-13-acetate) on mouse ear; assay: Model of acute inflammation on mouse ear: oedema induced by TPA; format: in vivo; conditions: for IC50 (concentration at which 50% inhibition of the oedema induced by TPA alone is observed): applied with 0.01% TPA in ethanol, oedema measured 6 hours after application; for inhibition of the TPA-induced inflammation: concentration of 1%, TPA test in mice
Procedure: The anti-inflammatory activities of the compound of formula (I) in racemic form, of metronidazole and of flurbiprofen (racemic) were measured in an in vivo test performed on a mouse model.
The model used is the model of mouse ear inflammation induced by a single application of TPA (phorbol 12-myristate-13-acetate). Female Balb/c ByJlco mice are used.
The oedema is induced by applying to the ear 20 μl of 0.01% TPA dissolved in ethanol.
The racemic compound of formula (I) is dissolved, at the desired concentration, in the 0.01% TPA solution and thus applied to a group of mice at the same time as the TPA.
Similarly, flurbiprofen (racemic) is dissolved, at the desired concentration, in the 0.01% TPA solution and thus applied to another group of mice at the same time as the TPA.
Finally, metronidazole is dissolved, at the desired concentration, in the 0.01% TPA solution and thus applied to another group of mice at the same time as the TPA.
The oedema is evaluated, 6 hours after application, by measuring the thickness of the ear using an Oditest® micrometer.
The TPA-induced oedema is evaluated relative to the ethanol vehicle group. The inhibition, with the racemic compound of formula (I), with flurbiprofen (racemic) or with metronidazole, of the oedema induced by TPA alone is expressed by the IC50.
The IC50 corresponds to the concentration (or dose) at which 50% inhibition of the oedema induced by TPA alone is observed.

SMILES: CC(C(=O)O)c1ccc(-c2ccccc2)c(F)c1 (racemic) [flurbiprofen (racemic), flurbiprofen]
inhibition of the oedema induced by AA alone ([3]; dose of 0.1%, topical, 1 hour after application): 60%
IC50 (concentration at which 50% inhibition of the oedema induced by AA alone is observed) [3]: 0.037%
IC50 (concentration at which 50% inhibition of the oedema induced by TPA alone is observed) [4]: 0.22%

SMILES: Cc1ncc([N+](=O)[O-])n1CCOC(=O)[C@H](C)c1ccc(-c2ccccc2)c(F)c1 [2-(2-methyl-5-nitroimidazol-1-yl)ethyl (R)-2-(2-fluorobiphenyl-4-yl)propionate]
inhibition of the TPA-induced inflammation [4]: 85%

SMILES: C[C@@H](C(=O)O)c1ccc(-c2ccccc2)c(F)c1 [(R)-flurbiprofen]
inhibition of the TPA-induced inflammation [4]: 80%

SMILES: C[C@H](C(=O)O)c1ccc(-c2ccccc2)c(F)c1 [(S)-flurbiprofen]
inhibition of the TPA-induced inflammation [4]: 70%

SMILES: COc1ccc2c(c1)c(CC(=O)OCCn1c([N+](=O)[O-])cnc1C)c(C)n2C(=O)c1ccc(Cl)cc1 [metronidazole ester with indomethacin]
hydrolysis / stability of the ester on keratinocyte cultures [2]: do not become hydrolysed

SMILES: Cc1ncc([N+](=O)[O-])n1CCO [metronidazole]
anti-inflammatory activity ([3]; AA-induced mouse ear oedema, result in words): no anti-inflammatory activity
anti-inflammatory activity ([4]; TPA-induced mouse ear oedema, result in words): no anti-inflammatory activity

Now from value to compound, other results behind:

half-life at 2 μM [1]: 6 h
hydrolysis / stability of the ester on keratinocyte cultures [2]: specifically cleaved in keratinocytes
IC50 (concentration at which 50% inhibition of the oedema induced by TPA alone is observed) [4]: 0.22%
SMILES: Cc1ncc([N+](=O)[O-])n1CCOC(=O)C(C)c1ccc(-c2ccccc2)c(F)c1 (racemic) [2-(2-methyl-5-nitroimidazol-1-yl)ethyl 2-(2-fluorobiphenyl-4-yl)propionate]
anti-inflammatory activity compared with flurbiprofen ([3]; dose of 1%, AA-induced mouse ear oedema, result in words): equivalent to that of flurbiprofen (racemic) at the 0.1% dose

half-life at 2 μM [1]: 18 h
IC50 (concentration at which 50% inhibition of the oedema induced by AA alone is observed) [3]: 1%
SMILES: Cc1ncc([N+](=O)[O-])n1CCOC(=O)[C@@H](C)c1ccc(-c2ccccc2)c(F)c1 [2-(2-methyl-5-nitroimidazol-1-yl)ethyl (S)-2-(2-fluorobiphenyl-4-yl)propionate]
inhibition of the TPA-induced inflammation [4]: 95%

hydrolysis / stability of the ester on keratinocyte cultures [2]: do not become hydrolysed
SMILES: Cc1ncc([N+](=O)[O-])n1CCOC(=O)c1cc(-c2ccc(F)cc2F)ccc1O [metronidazole ester with diflunisal]

hydrolysis / stability of the ester on keratinocyte cultures [2]: do not become hydrolysed
SMILES: Cc1ncc([N+](=O)[O-])n1CCOC(=O)C1CCn2c(C(=O)c3ccccc3)ccc21 (stereo not shown) [metronidazole ester with ketorolac]

hydrolysis / stability of the ester on keratinocyte cultures [2]: do not become hydrolysed
SMILES: Cc1ncc([N+](=O)[O-])n1CCOC(=O)c1cccnc1Nc1cccc(C(F)(F)F)c1 [metronidazole ester with niflumic acid]
